These results are taken from US9090593B2, “Bicyclic compounds as Pim inhibitors” (AMGEN INC., priority 2010, dated 2015).

SMILES strings stand for the structures.

In assay [1] the target is T1, full length recombinant Pim-1 protein (Homo sapiens, UniProt P11309).
T1 construct: by full length recombinant Pim-1, Pim-2, or Pim-3 protein; hexahistidine tag followed by a thrombin cleavage site (N); made in house; host or cells: Sf9 (baculovirus) or E. coli (pET28)
Briefly: Pim-1 enzyme assay (HTRF, phosphorylation of biotinylated-BAD (S112) peptide). In kind it is biochemical. The note with it: enzyme assay, Pim-1; read-out: Pim_1_IC50. The gist of the method:
(§1)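 Recombinant full-length Pim-1 or Pim-2 was incubated with biotinylated BAD (S112) peptide in pH 7.0 Hepes buffer with BSA and DTT. After an EDTA stop, phosphopeptide was quantified by time-resolved FRET between a europium antibody and streptavidin-APC, and IC50 values came from 4-parameter logistic curves.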
For orientation: Time-resolved FRET reads energy transfer from a long-lived donor to a nearby acceptor.

In assay [2] the target is T2, full length recombinant Pim-3 protein (Homo sapiens, UniProt Q86V86).
T2 construct: by full length recombinant Pim-1, Pim-2, or Pim-3 protein; purchased Millipore (UK)
Briefly: Pim-3 enzyme assay (HTRF, phosphorylation of biotinylated-BAD (S112) peptide). The assay is classed as biochemical. The note with it: read-out: Pim3 IC50. The gist of the method: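 HTRF read-out, streptavidin-APC plus Eu-labelled anti-phospho-BAD (S112) antibody, measures BAD peptide phosphorylation by full-length recombinant Pim-3. Buffer: 60 mM Hepes pH 7.0, 2 mM DTT, 0.05% BSA; EDTA (3 mM) stop. Percent of control per well, IC50 by 4-parameter logistic fit.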

Assay [3] concerns the target T3, Pim-2 stably transfected into the U2OS human osteogenic sarcoma line (Homo sapiens, UniProt Q9P1W9).
T3 construct: expressed in transfected cells; host or cells: U2OS human osteogenic sarcoma line
Description: Pim cell assay, phospho-BAD normalized against total BAD, U2OS stably transfected with Pim-2. Note: high dose 31.6 µM. In kind it is cell-based. To be noted: U2OS cells stably transfected with Pim-2, phospho-BAD; high dose […]; read-out: Pim2_Cell_IC50. The gist of the method:
(§2)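 Read-out is phospho-BAD relative to total BAD, by MSD electrochemiluminescence on lysates, expressed as % phosphoprotein = (2×phospho)/(phospho+total)×100. Engineered U2OS lines carrying stably transfected Pim-1 or Pim-2 received 10-point compound dilutions at 0.3% final DMSO after overnight culture at 37 °C; DMSO-only wells served as high control.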

Assay [4] has as its target T4, Pim-1 stably transfected into the U2OS human osteogenic sarcoma line (Homo sapiens, UniProt P11309).
T4 construct: expressed in transfected cells; host or cells: U2OS human osteogenic sarcoma line
Briefly: Pim cell assay, phospho-BAD normalized against total BAD, U2OS stably transfected with Pim-1. In kind it is cell-based. The note with it: U2OS cells stably transfected with Pim-1, phospho-BAD; high dose […]; read-out: Pim1_Cell_IC50. The gist of the method:
as §2

For assay [5], the target named is T5, full length recombinant Pim-2 protein (Homo sapiens, UniProt Q9P1W9).
T5 construct: by full length recombinant Pim-1, Pim-2, or Pim-3 protein; hexahistidine tag followed by a thrombin cleavage site (N); made in house; host or cells: Sf9 (baculovirus) or E. coli (pET28)
T5 sequence (Q9P1W9 whole entry): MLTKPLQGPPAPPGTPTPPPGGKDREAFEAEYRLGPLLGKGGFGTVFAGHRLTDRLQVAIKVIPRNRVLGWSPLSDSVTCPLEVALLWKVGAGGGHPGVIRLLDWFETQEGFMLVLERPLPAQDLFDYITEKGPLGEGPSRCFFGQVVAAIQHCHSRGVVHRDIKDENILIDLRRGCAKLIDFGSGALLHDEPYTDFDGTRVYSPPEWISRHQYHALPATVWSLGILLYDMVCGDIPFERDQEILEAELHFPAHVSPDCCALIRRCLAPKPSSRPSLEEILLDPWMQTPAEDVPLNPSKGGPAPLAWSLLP
Briefly: Pim-2 enzyme assay (HTRF, phosphorylation of biotinylated-BAD (S112) peptide). The assay is classed as biochemical. To be noted: enzyme assay, Pim-2; read-out: Pim2_IC50. The gist of the method: as §1

T1 sequence (P11309 whole entry): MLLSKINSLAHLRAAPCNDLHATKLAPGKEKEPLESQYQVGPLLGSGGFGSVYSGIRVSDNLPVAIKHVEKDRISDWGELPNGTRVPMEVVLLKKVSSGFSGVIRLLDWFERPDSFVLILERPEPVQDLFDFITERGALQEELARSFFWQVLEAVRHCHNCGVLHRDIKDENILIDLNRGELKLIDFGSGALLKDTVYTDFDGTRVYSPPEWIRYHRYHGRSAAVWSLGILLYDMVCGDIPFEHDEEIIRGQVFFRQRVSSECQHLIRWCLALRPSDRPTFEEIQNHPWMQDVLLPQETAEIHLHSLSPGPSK
T4 sequence (P11309 whole entry): as above
T3 sequence (Q9P1W9 whole entry): as the sequence (Q9P1W9 whole entry) above

For the molecule `CCNC(=O)c1ccc(F)c(-c2ccc3[nH]nc(-c4cncc(N5CCC(N)CC5)n4)c3c2)c1` [Example 43, 3-(3-(6-(4-amino-1-piperidinyl)-2-pyrazinyl)-1H-indazol-5-yl)-N-ethyl-4-fluorobenzamide], the IC50 came out at 7 nM in assay [1]; 3 nM in assay [2]; 14900 nM in assay [3]; 2520 nM in assay [4]; 5 nM in assay [5].
Consider `CC(C)NC(=O)c1ccc(F)c(-c2ccc3[nH]nc(-c4cncc(N5CCC(N)CC5)n4)c3c2)c1` [Example 44, 3-(3-(6-(4-amino-1-piperidinyl)-2-pyrazinyl)-1H-indazol-5-yl)-4-fluoro-N-(1-methylethyl)benzamide], for which the IC50 in assay [1] amounted to 7 nM; in assay [2], 4 nM; in assay [3], 4580 nM; in assay [4], 932 nM; in assay [5], 5 nM.
Regarding `NC1CCN(c2cncc(-c3n[nH]c4ccc(-c5cc(C(=O)Nc6ccccc6)ccc5F)cc34)n2)CC1` [Example 45, 3-(3-(6-(4-amino-1-piperidinyl)-2-pyrazinyl)-1H-indazol-5-yl)-4-fluoro-N-phenylbenzamide], the IC50 in assay [1] is 12 nM; in assay [2], 8 nM; in assay [3], over 31600 nM; in assay [4], 1560 nM; in assay [5], 23 nM.
For `CCN(CC)C(=O)c1ccc(F)c(-c2ccc3[nH]nc(-c4cncc(N5CCC(N)CC5)n4)c3c2)c1` [Example 46, 3-(3-(6-(4-amino-1-piperidinyl)-2-pyrazinyl)-1H-indazol-5-yl)-N,N-diethyl-4-fluorobenzamide], the IC50 in assay [1] amounted to 20 nM; in assay [2], 22 nM; in assay [3] it was 7030 nM; in assay [4] it was 959 nM; in assay [5], 49 nM.
Regarding `CCN(CC)C(=O)c1cccc(-c2ccc3[nH]nc(-c4cncc(N5CCC(N)CC5)n4)c3c2)c1F` [Example 47, 3-(3-(6-(4-amino-1-piperidinyl)-2-pyrazinyl)-1H-indazol-5-yl)-N,N-diethyl-2-fluorobenzamide], the IC50 was 43 nM in assay [1]; 43 nM in assay [2]; over 31600 nM in assay [3]; 1940 nM in assay [4]; 290 nM in assay [5].
Turning to `NC1CCN(c2cncc(-c3n[nH]c4ccc(-c5cc6ccccc6nc5Cl)cc34)n2)CC1` [Example 48, 1-(6-(5-(2-chloro-3-quinolinyl)-1H-indazol-3-yl)-2-pyrazinyl)-4-piperidinamine], the IC50 in assay [1] is 44 nM; in assay [2], 27 nM; in assay [3] it was over 31600 nM; in assay [4], 1110 nM; in assay [5] it was 285 nM.
For the molecule `Cn1ccc2cc(-c3ccc4[nH]nc(-c5cncc(N6CCC(N)CC6)n5)c4c3)ccc2c1=O` [Example 49, 6-(3-(6-(4-amino-1-piperidinyl)-2-pyrazinyl)-1H-indazol-5-yl)-2-methyl-1(2H)-isoquinolinone], the IC50 in assay [1] was 7 nM; in assay [2], 7 nM; in assay [3], over 31600 nM; in assay [4], 1340 nM; in assay [5] it was 72 nM.
As to `Cn1c(=O)cc(-c2ccc3[nH]nc(-c4cncc(N5CCC(N)CC5)n4)c3c2)c2ccccc21` [Example 50, 4-(3-(6-(4-amino-1-piperidinyl)-2-pyrazinyl)-1H-indazol-5-yl)-1-methyl-2(1H)-quinolinone], the IC50 was 24 nM in assay [1]; 21 nM in assay [2]; over 31600 nM in assay [3]; 2270 nM in assay [4]; 470 nM in assay [5].
As to `CN1C(=O)Cc2cc(-c3ccc4[nH]nc(-c5cncc(N6CCC(N)CC6)n5)c4c3)ccc21` [Example 51, 5-(3-(6-(4-amino-1-piperidinyl)-2-pyrazinyl)-1H-indazol-5-yl)-1-methyl-1,3-dihydro-2H-indol-2-one], the IC50 is 13 nM in assay [1]; 9 nM in assay [2]; over 31600 nM in assay [3]; 1460 nM in assay [4]; 87 nM in assay [5].
The matching figures for `NC1CCN(c2cncc(-c3n[nH]c4ccc(-c5ccc6ncsc6c5)cc34)n2)CC1` [Example 52, 1-(6-(5-(1,3-benzothiazol-6-yl)-1H-indazol-3-yl)-2-pyrazinyl)-4-piperidinamine]: 4 nM, 1 nM, 9500 nM, 237 nM and 24 nM.
With `NC1CCN(c2cncc(-c3n[nH]c4ccc(-c5ccc6scnc6c5)cc34)n2)CC1` [Example 53, 1-(6-(5-(1,3-benzothiazol-5-yl)-1H-indazol-3-yl)-2-pyrazinyl)-4-piperidinamine], the IC50 was found to be 2 nM in assay [1]; 1 nM in assay [2]; 9930 nM in assay [3]; 280 nM in assay [4]; 17 nM in assay [5].
Consider `NC1CCN(c2cncc(-c3n[nH]c4ccc(-c5cnc6ccccc6c5)cc34)n2)CC1` [Example 55, 1-(6-(5-(3-quinolinyl)-1H-indazol-3-yl)-2-pyrazinyl)-4-piperidinamine], for which the IC50 is 1 nM in assay [1]; 1 nM in assay [2]; over 31600 nM in assay [3]; 287 nM in assay [4]; 51 nM in assay [5].
In the case of `NC1CCN(c2cncc(-c3n[nH]c4ccc(-c5ccc6nccnc6c5)cc34)n2)CC1` [Example 56, 1-(6-(5-(6-quinoxalinyl)-1H-indazol-3-yl)-2-pyrazinyl)-4-piperidinamine], the IC50 is 2 nM in assay [1]; 1 nM in assay [2]; over 31600 nM in assay [3]; 130 nM in assay [4]; 15 nM in assay [5].
On to `CN1CCOc2cc(-c3ccc4[nH]nc(-c5cncc(N6CCC(N)CC6)n5)c4c3)cnc21` [Example 58, 1-(6-(5-(4-methyl-3,4-dihydro-2H-pyrido[3,2-b][1,4]oxazin-7-yl)-1H-indazol-3-yl)-2-pyrazinyl)-4-piperidinamine], for which the IC50 stood at 2 nM in assay [1]; 1 nM in assay [2]; 6760 nM in assay [3]; 164 nM in assay [4]; 11 nM in assay [5].
Turning to `CS(=O)(=O)c1ccc(-c2ccc3[nH]nc(-c4cncc(N5CCC(N)CC5)n4)c3c2)cc1` [Example 59, 1-(6-(5-(4-(methylsulfonyl)phenyl)-1H-indazol-3-yl)-2-pyrazinyl)-4-piperidinamine], the IC50 in assay [1] is 3 nM; in assay [2] it was 11 nM; in assay [3] it was over 31600 nM; in assay [4], 2160 nM; in assay [5] it was 28 nM.
Regarding `N#Cc1ccccc1-c1ccc2[nH]nc(-c3cncc(N4CCC(N)CC4)n3)c2c1` [Example 60, 2-(3-(6-(4-amino-1-piperidinyl)-2-pyrazinyl)-1H-indazol-5-yl)benzonitrile], the IC50 in assay [1] worked out at 5 nM; in assay [2], 4 nM; in assay [3], 12800 nM; in assay [4], 419 nM; in assay [5], 36 nM.
On to `COc1ccc(F)c(-c2ccc3[nH]nc(-c4cncc(N5CCC(N)CC5)n4)c3c2)c1` [Example 61, 1-(6-(5-(2-fluoro-5-methoxyphenyl)-1H-indazol-3-yl)-2-pyrazinyl)-4-piperidinamine], for which the IC50 is 10 nM in assay [1]; 6 nM in assay [2]; over 31600 nM in assay [3]; 3010 nM in assay [4]; 65 nM in assay [5].
With `N#Cc1cccc(-c2ccc3[nH]nc(-c4cncc(N5CCC(N)CC5)n4)c3c2)c1` [Example 62, 3-(3-(6-(4-amino-1-piperidinyl)-2-pyrazinyl)-1H-indazol-5-yl)benzonitrile], the IC50 in assay [1] is 11 nM; in assay [2] it was 7 nM; in assay [3] it was over 31600 nM; in assay [4], 599 nM; in assay [5], 59 nM.
`COc1cccc(-c2ccc3[nH]nc(-c4cncc(N5CCC(N)CC5)n4)c3c2)n1` [Example 63, 1-(6-(5-(6-methoxy-2-pyridinyl)-1H-indazol-3-yl)-2-pyrazinyl)-4-piperidinamine]: the IC50 is 11 nM in assay [1]; 8 nM in assay [2]; over 31600 nM in assay [3]; 1690 nM in assay [4]; 161 nM in assay [5].
On to `CC(C)Oc1cccc(-c2ccc3[nH]nc(-c4cncc(N5CCC(N)CC5)n4)c3c2)n1` [Example 64, 1-(6-(5-(6-(1-methylethoxy)-2-pyridinyl)-1H-indazol-3-yl)-2-pyrazinyl)-4-piperidinamine], for which the IC50 in assay [1] was 20 nM; in assay [2], 16 nM; in assay [3], over 31600 nM; in assay [4] it was 3020 nM; in assay [5], 150 nM.
